Read-outs that look alike come from different tables or passages of the source.
Legend:
WT/R232 STING protein = target: T1, WT/R232 STING protein (Homo sapiens, UniProt Q86WV6, H232R); experiment: Luciferase reporter assay in HEK293T-hSTING-Luciferase cells, WT/R232; format: cell-based; details: 20 hr stimulation, read-out: R232 Activity (EC50 range)
T1 construct: host or cells: HEK293T
How it was run: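 Clonal HEK293T cells stably expressing human STING R232 plus an ISRE/ISG54-driven luciferase reporter, 5×10^5 per well, stimulated with compounds for 20 h. Secreted luciferase in supernatant measured by luminescence; […].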

hSTING(H232) = target: T2, hSTING(H232) (Homo sapiens, UniProt Q86WV6); experiment: Luciferase reporter assay in HEK293T-hSTING-Luciferase cells, H232 polymorph; format: cell-based; details: 20 hr stimulation, read-out: H232 activity (EC50 range)
T2 construct: host or cells: HEK293T
T2 sequence (Q86WV6 whole entry): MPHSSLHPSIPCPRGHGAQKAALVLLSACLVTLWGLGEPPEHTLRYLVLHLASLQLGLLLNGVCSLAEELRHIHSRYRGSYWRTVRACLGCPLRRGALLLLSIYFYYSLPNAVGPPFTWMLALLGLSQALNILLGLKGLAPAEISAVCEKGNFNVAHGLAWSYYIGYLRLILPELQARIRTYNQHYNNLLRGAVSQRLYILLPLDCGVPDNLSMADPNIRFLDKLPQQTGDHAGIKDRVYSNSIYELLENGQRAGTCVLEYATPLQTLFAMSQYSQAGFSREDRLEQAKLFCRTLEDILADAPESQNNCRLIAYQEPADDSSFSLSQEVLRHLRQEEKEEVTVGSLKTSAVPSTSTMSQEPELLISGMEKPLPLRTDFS
From the text: (§1) • a) Stable STING expressing cells—Stable HEK293T STING-expressing cell lines were generated using plasmids purchased from Invivogen, Calif., USA, that contain STING cDNA cloned into the pUNO-1 vector under hEF1-HTLV promoter and containing the Blasticidin selection cassette. The plasmids hSTING(R232), hSTING(H232), hSTING(HAQ) were directly procured from Invivogen while hSTING (AQ) and hSTING (Q) were derived from hSTING(HAQ) and hSTING (R232) plasmids respectively by using a PCR based site directed mutagenesis method. These vectors were individually transfected into HEK293T cells using Lipofectamine (Invitrogen) and transfected cells were selected under Blasticidin selection. These transfected cells were further subjected to clonal selection using the limiting dilution method to obtain clonally pure populations of HEK cells transfected with each of the above mentioned human STING variants. Only those clones were selected in which ligand independent activation of STING was minimal. • b) Stable Luciferase reporter gene expressing cells—Stable HEK293T Luciferase reporter gene expressing cell lines were generated using pCDNA4 plasmids under an IRF-inducible promoter. This promoter is comprised of five tandem interferon-stimulated response elements (ISRE) fused to an ISG54 minimal promoter. This vector was transfected into HEK293T cells using Lipofectamine (Invitrogen) and transfected cells were selected under Zeocin selection. These transfected cells were further subjected to clonal selection using the limiting dilution method to obtain clonally pure populations of HEK cells transfected the Luciferase reporter construct. Only those clones were selected in which ligand independent induction of luciferase was minimal.
(§2) 5×10^5 clonally selected HEK293T-hSTING-Luciferase cells were seeded in 384-well plates in growth medium and stimulated with novel compounds. After 20 hr of stimulation supernatant were removed and secretary reporter gene activity were measured using the Quanti-Luc detection system (Invivogen) on a Spectramax i3X luminometer.
(§3) The 5 major polymorphisms of human STING are shown in FIG. 1, with their prevalence in human populations indicated.

hSTING(HAQ) = target: T3, hSTING(HAQ) (Homo sapiens, UniProt Q86WV6, G230A/H232R/R293Q/R71H); experiment: Luciferase reporter assay in HEK293T-hSTING-Luciferase cells, HAQ polymorph; format: cell-based; details: 20 hr stimulation, read-out: HAQ activity (EC50 range)
T3 construct: host or cells: HEK293T
T3 sequence (Q86WV6 whole entry R71H/G230A/H232R/R293Q): as the sequence (Q86WV6 whole entry) above, with R71H, G230A, H232R, R293Q counted along it
From the text: as §1, §2, §3

IRF pathway = experiment: Reporter gene expression assay in THP1-Dual cells, IRF axis (secreted Lucia luciferase); format: cell-based, human; details: read-out: THP-IRF activity (EC50 range)
Procedure: (§4) THP1-Dual™ cells (Invivogen) were derived from the human THP-1 monocyte cell line by stable integration of two inducible reporter constructs. As a result, THP1-Dual™ cells allow the simultaneous study of the NF-κB pathway, by monitoring the activity of secreted SEAP, and the IRF pathway, by assessing the activity of a secreted luciferase (Lucia). […] THP1-Dual™ cells were seeded in 384-well plates in growth medium and stimulated with novel compounds. After […] of stimulation supernatant were removed and reporter proteins were readily measured in the cell culture supernatant using QUANTI-Blue™ (Invivogen), a SEAP detection reagent, and QUANTI-Luc™ (Invivogen), a luciferase detection reagent on a Spectramax i3X luminometer.

NF-κB pathway = experiment: Reporter gene expression assay in THP1-Dual cells, NFkB axis (secreted SEAP); format: cell-based, human; details: read-out: THP-NFKB activity (EC50 range)
Procedure: as §4

T1 sequence (Q86WV6 whole entry H232R): as the sequence (Q86WV6 whole entry) above, with H232R counted along it

| SMILES | EC50 (WT/R232 STING protein) | further results |
| --- | --- | --- |
| CC1(CCl)Sc2ccc(C(=O)NCc3ccc(F)cc3F)cc2N(Cc2c(F)cccc2Cl)C1=O (stereo not shown) [Example 150, 4-(2-chloro-6-fluorobenzyl)-2-(chloromethyl)-N-(2,4-difluorobenzyl)-2-methyl-3-oxo-3,4-dihydro-2H-benzo[b][1,4] thiazine-6-carboxamide] | – | EC50 (IRF pathway): 1 to 10 µM; EC50 (NF-κB pathway): 1 to 10 µM |
| CC1Sc2ccc(C(=O)NCc3c(F)cc(F)cc3F)cc2N(Cc2ccccc2F)C1=O (stereo not shown) [Example 142, 4-(2-fluorobenzyl)-2-methyl-3-oxo-N-(2,4,6-trifluorobenzyl)-3,4-dihydro-2H-benzo[b-1,4]thiazine-6-carboxamide] | – | EC50 (hSTING(H232)): < 1 µM; EC50 (hSTING(HAQ)): < 1 µM; EC50 (IRF pathway): 1 to 10 µM |
| C[C@H](NC(=O)c1ccc2c(c1)N(Cc1ccccc1F)C(=O)CS2)C1CCCCC1 [Example 18, (S)-N-(1-cyclohexyl-ethyl)-4-(2-fluorobenzyl)-3-oxo-3,4-dihydro-2H-benzo[b-1,4]thiazine-6-carboxamide] | > 10 µM | – |
| O=C(NCc1ccccc1)c1ccc2c(c1)N(Cc1c(F)cccc1Cl)C(=O)CS2 [Example 126, N-benzyl-4-(2-chloro-6-fluorobenzyl)-3-oxo-3,4-dihydro-2H-benzo[b-1,4]thiazine-6-carboxamide] | 1 to 10 µM | – |
| CC1Sc2ncc(C(=O)NCc3cnn(C)c3)cc2N(Cc2cc(F)cc(F)c2)C1=O (stereo not shown) [Example 216, 1-(3,5-difluorobenzyl)-3-methyl-N-((1-methyl-1H-pyrazol-4-yl)methyl)-2-oxo-2,3-dihydro-1H-pyrido[2,3-b][1,4] thiazine-7-carboxamide] | > 10 µM | – |
| O=C(NCC1CCN(c2ccccc2)CC1)c1ccc2c(c1)N(Cc1ccccc1F)C(=O)CS2 [Example 45, 4-(2-fluorobenzyl)-3-oxo-N-((1-phenyl-piperidin-4-yl)methyl)-3,4-dihydro-2H-benzo[b][1,4] thiazine-6-carboxamide] | > 10 µM | – |
| O=C(NCc1ccco1)c1ccc2c(c1)N(CCc1cccc(Cl)c1)C(=O)CS2 [Example 90, 4-(3-chlorophenethyl)-N-(furan-2-ylmethyl)-3-oxo-3,4-dihydro-2H-benzo[b-1,4]thiazine-6-carboxamide] | > 10 µM | – |
| O=C(NCc1ccco1)c1ccc2c(c1)N(Cc1ccccc1)CC[S+]2[O-] (stereo not shown) [Example 251, 4-Benzyl-N-(furan-2-ylmethyl)-3,4-dihydro-2H-benzo[b-1,4]thiazine-6-carboxamide 1-oxide] | > 10 µM | – |
| CC1Sc2ccc(C(=O)NCc3cnn(C)c3)cc2N(Cc2cc(F)cc(F)c2)C1=O (stereo not shown) [Example 169, 4-(3,5-difluorobenzyl)-2-methyl-N-((1-methyl-1H-pyrazol-4-yl)methyl)-3-oxo-3,4-dihydro-2H-benzo[b][1,4] thiazine-6-carboxamide] | > 10 µM | – |
| Cc1cc(C(=O)NCc2ccco2)cc2c1SCC(=O)N2Cc1ccccc1F [Example 226, 4-(2-Fluorobenzyl)-N-(furan-2-ylmethyl)-8-methyl-3-oxo-3,4-dihydro-2H-benzo[b-1,4]thiazine-6-carboxamide] | > 10 µM | – |
| O=C(NCc1ccc(F)cc1F)c1cnc2c(c1)N(Cc1ccc(F)cc1)C(=O)CC2 [Example 280, N-(2,4-difluorobenzyl)-5-(4-fluorobenzyl)-6-oxo-5,6,7,8-tetrahydro-1,5-naphthyridine-3-carboxamide] | > 10 µM | – |
| Cc1cccc(CNC(=O)c2ccc3c(c2)N(Cc2ccccc2Cl)C(=O)C(C)S3)c1 (stereo not shown) [Example 143, 4-(2-chlorobenzyl)-2-methyl-N-(3-methylbenzyl)-3-oxo-3,4-dihydro-2H-benzo[b-1,4]thiazine-6-carboxamide] | 1 to 10 µM | – |
| Cc1nc(CN2C(=O)CSc3ccc(C(=O)NCc4ccco4)cc32)cs1 [Example 96, N-(furan-2-ylmethyl)-4-((2-methylthiazol-4-yl)methyl)-3-oxo-3,4-dihydro-2H-benzo[b-1,4]thiazine-6-carboxamide] | > 10 µM | – |
| Cc1ccc(CNC(=O)c2ccc3c(n2)N(C(C)c2cc(F)cc(F)c2)C(=O)C(C)S3)o1 (stereo not shown) [Example 204, 4-(1-(3,5-difluorophenyl)ethyl)-2-methyl-N-((5-methylfuran-2-yl)methyl)-3-oxo-3,4-dihydro-2H-pyrido[3,2-b] [1,4] thiazine-6-carboxamide] | 1 to 10 µM | – |

More lines, main results first:

| EC50 (WT/R232 STING protein) | SMILES | further results |
| --- | --- | --- |
| < 1 µM | CC1Sc2ccc(C(=O)NCc3c(F)cc(F)cc3F)cc2N(Cc2ccncc2)C1=O (stereo not shown) [Example 157, 2-methyl-3-oxo-4-(pyridin-4-ylmethyl)-N-(2,4,6-trifluorobenzyl)-3,4-dihydro-2H-benzo[b][1,4] thiazine-6-carboxamide] | EC50 (hSTING(H232)): 1 to 10 µM; EC50 (hSTING(HAQ)): 1 to 10 µM; EC50 (IRF pathway; Homo sapiens, THP1-Dual): 1 to 10 µM; EC50 (NF-κB pathway; Homo sapiens, THP1-Dual): 1 to 10 µM |
| < 1 µM | CC1Sc2ccc(C(=O)NCc3c(F)cc(F)cc3F)cc2N(Cc2ccccc2F)C1=O (stereo not shown) [Example 140, 4-(2-fluorobenzyl)-2-methyl-3-oxo-N-(2,4,6-trifluorobenzyl)-3,4-dihydro-2H-benzo[b-1,4]thiazine-6-carboxamide] | EC50 (IRF pathway; Homo sapiens, THP1-Dual): 1 to 10 µM; EC50 (NF-κB pathway; Homo sapiens, THP1-Dual): 1 to 10 µM |
| 1 to 10 µM | O=C(NCc1ccc(F)cc1)c1ccc2c(c1)N(Cc1ccccc1Cl)C(=O)CS2 [Example 122, 4-(2-chlorobenzyl)-N-(4-fluorobenzyl)-3-oxo-3,4-dihydro-2H-benzo[b-1,4]thiazine-6-carboxamide] | – |
| > 10 µM | O=C(NCc1c(F)cc(F)cc1F)c1cnc2c(c1)N(Cc1c(F)cccc1Cl)C(=O)CO2 [Example 239, 1-(2-chloro-6-fluorobenzyl)-2-oxo-N-(2,4,6-trifluorobenzyl)-2,3-dihydro-1H-pyrido[2,3-b-1,4]oxazine-7-carboxamide] | – |
| > 10 µM | Cn1cccc1CNC(=O)c1ccc2c(c1)N(Cc1ccccc1)C(=O)CS2 [Example 10, 4-benzyl-N-((1-methyl-1H-pyrrol-2-yl)methyl)-3-oxo-3,4-dihydro-2H-benzo[b-1,4]thiazine-6-carboxamide] | – |
| 1 to 10 µM | O=C(NCc1ccco1)c1ccc2c(c1)N(Cc1c(F)cccc1F)C(=O)CS2 [Example 101, 4-(2,6-difluorobenzyl)-N-(furan-2-ylmethyl)-3-oxo-3,4-dihydro-2H-benzo[b-1,4]thiazine-6-carboxamide] | – |
| > 10 µM | N#Cc1ccccc1CN1C(=O)CSc2ccc(C(=O)NCc3ccco3)cc21 [Example 94, 4-(2-cyanobenzyl)-N-(furan-2-ylmethyl)-3-oxo-3,4-dihydro-2H-benzo[b-1,4]thiazine-6-carboxamide] | – |
| 1 to 10 µM | O=C(NCc1ccco1)c1ccc2c(c1)N(Cc1ccc(Cl)cc1)C(=O)CS2 [Example 119, 4-(4-chlorobenzyl)-N-(furan-2-ylmethyl)-3-oxo-3,4-dihydro-2H-benzo[b-1,4]thiazine-6-carboxamide] | – |
| > 10 µM | O=C(NCc1cnccn1)c1ccc2c(c1)N(Cc1ccccc1)C(=O)CS2 [Example 58, 4-benzyl-3-oxo-N-(pyrazin-2-ylmethyl)-3,4-dihydro-2H-benzo[b-1,4]thiazine-6-carboxamide] | – |
| > 10 µM | O=C(NCc1ccco1)c1ccc2c(c1)N(Cc1ccc(Cl)s1)C(=O)CS2 [Example 95, 4-((5-chlorothiophen-2-yl)methyl)-N-(furan-2-ylmethyl)-3-oxo-3,4-dihydro-2H-benzo[b-1,4]thiazine-6-carboxamide] | – |
| > 10 µM | O=C(NC(c1ccccc1)c1ccccc1)c1ccc2c(c1)N(Cc1ccccc1F)C(=O)CS2 [Example 42, N-benzhydryl-4-(2-fluorobenzyl)-3-oxo-3,4-dihydro-2H-benzo[b][1,4] thiazine-6-carboxamide] | – |

Source: patent US20200138827A1, “SMALL MOLECULE MODULATORS OF HUMAN STING” (Curadev Pharma Limited, priority 2017, published 2020)
